Experimental data taken from US8497266B2, “3-(3-pyrimidin-2-ylbenzyl)-1,2,4-triazolo[4,3-b]pyridazine derivatives as MET kinase inhibitors” (Merck Patent GmbH, priority 2008, dated 2013).
pIC50: −log10 of the molar value.

Assays:
Met kinase [1] = target: T1, Met kinase (Homo sapiens, UniProt P08581); assay: Met kinase inhibition (cell); type: cell-based
Target sequence in this assay (P08581 25-1390): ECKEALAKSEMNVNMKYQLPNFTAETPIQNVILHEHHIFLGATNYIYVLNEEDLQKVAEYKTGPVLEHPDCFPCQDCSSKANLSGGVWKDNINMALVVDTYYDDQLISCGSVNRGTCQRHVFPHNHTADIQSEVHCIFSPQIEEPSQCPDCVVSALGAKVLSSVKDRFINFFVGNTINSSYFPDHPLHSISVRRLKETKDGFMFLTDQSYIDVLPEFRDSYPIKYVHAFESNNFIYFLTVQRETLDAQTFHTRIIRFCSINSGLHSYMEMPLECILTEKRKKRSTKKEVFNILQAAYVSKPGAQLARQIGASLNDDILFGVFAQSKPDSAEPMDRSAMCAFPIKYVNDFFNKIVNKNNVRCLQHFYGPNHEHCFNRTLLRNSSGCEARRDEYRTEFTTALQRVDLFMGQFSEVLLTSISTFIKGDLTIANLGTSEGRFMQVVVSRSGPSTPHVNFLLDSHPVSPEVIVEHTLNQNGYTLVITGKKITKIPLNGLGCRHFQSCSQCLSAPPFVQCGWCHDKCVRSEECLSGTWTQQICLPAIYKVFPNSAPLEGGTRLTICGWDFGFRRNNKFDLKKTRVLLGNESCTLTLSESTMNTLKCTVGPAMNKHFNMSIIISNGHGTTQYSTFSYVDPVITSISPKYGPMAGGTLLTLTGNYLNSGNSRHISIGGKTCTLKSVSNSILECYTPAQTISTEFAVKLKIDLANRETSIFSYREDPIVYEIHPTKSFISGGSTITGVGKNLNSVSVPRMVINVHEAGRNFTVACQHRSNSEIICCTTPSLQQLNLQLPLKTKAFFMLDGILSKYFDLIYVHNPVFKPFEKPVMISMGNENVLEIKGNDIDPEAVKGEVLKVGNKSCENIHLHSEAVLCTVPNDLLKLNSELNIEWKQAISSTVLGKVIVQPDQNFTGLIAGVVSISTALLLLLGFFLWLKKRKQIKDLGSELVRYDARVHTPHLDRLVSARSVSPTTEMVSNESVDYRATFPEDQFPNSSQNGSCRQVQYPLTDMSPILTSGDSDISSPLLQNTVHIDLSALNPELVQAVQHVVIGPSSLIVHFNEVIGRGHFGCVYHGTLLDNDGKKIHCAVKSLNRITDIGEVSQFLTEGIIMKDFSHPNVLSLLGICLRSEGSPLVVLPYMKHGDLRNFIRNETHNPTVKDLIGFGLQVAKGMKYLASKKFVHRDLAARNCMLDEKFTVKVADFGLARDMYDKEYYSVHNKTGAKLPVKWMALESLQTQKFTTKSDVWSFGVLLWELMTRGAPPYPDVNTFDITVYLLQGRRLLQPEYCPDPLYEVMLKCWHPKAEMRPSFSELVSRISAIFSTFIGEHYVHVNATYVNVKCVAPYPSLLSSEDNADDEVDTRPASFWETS

Met kinase [2] = target: T1, Met kinase; assay: Met kinase inhibition, flashplate method (enzyme); type: biochemical; design: 6His (N); purchased Upstate 14-526; host or cells: Sf21 insect cells (S. frugiperda), baculovirus
Source text: According to the manufacturer's data (Met, active, Upstate, catalogue No. 14-526), Met kinase is expressed for the purposes of protein production in insect cells (Sf21; S. frugiperda) and subsequent affinity-chromatographic purification as “N-terminal 6His-tagged” recombinant human protein in a baculovirus expression vector.
The test plates used are 96-well Flashplate® microtitre plates from Perkin Elmer (Cat. No. SMP200). The components of the kinase reaction described below are pipetted into the assay plate. The Met kinase and the substrate poly Ala-Glu-Lys-Tyr, (pAGLT, 6:2:5:1), are incubated for 3 hrs at room temperature with radioactively labelled ^33P-ATP in the presence and absence of test substances in a total volume of 100 μl. The reaction is terminated using 150 μl of a 60 mM EDTA solution. After incubation for a further 30 min at room temperature, the supernatants are filtered off with suction, and the wells are washed three times with 200 μl of 0.9% NaCl solution each time. The measurement of the bound radioactivity is carried out by means of a scintillation measuring instrument (Topcount NXT, Perkin-Elmer).
The full value used is the inhibitor-free kinase reaction. This should be approximately in the range 6000-9000 cpm. The pharmacological zero value used is staurosporin in a final concentration of 0.1 mM. The inhibitory values (IC50) are determined using the RS1_MTS program.
Kinase reaction conditions per well: • 30 μl of assay buffer • 10 μl of substance to be tested in assay buffer with 10% of DMSO • 10 μl of ATP (final concentration 1 μM cold, 0.35 μCi of ^33P-ATP) • 50 μl of Met kinase/substrate mixture in assay buffer; • (10 ng of enzyme/well, 50 ng of pAGLT/well) • Solutions used: • Assay buffer: • 50 mM HEPES • 3 mM magnesium chloride • 3 μM sodium orthovanadate • 3 mM manganese(II) chloride • 1 mM dithiothreitol (DTT) • pH=7.5 (to be set using sodium hydroxide) • Stop solution: • 60 mM Titriplex III (EDTA) • ^33P-ATP: Perkin-Elmer; • Met kinase: Upstate, Cat. No. 14-526, Stock 1 μg/10 μl; spec. activity 954 U/mg; • Poly-Ala-Glu-Lys-Tyr, 6:2:5:1: Sigma Cat. No. P1152 In-Vivo Tests
Target sequence in this assay (P08581 956-1390 limits assumed): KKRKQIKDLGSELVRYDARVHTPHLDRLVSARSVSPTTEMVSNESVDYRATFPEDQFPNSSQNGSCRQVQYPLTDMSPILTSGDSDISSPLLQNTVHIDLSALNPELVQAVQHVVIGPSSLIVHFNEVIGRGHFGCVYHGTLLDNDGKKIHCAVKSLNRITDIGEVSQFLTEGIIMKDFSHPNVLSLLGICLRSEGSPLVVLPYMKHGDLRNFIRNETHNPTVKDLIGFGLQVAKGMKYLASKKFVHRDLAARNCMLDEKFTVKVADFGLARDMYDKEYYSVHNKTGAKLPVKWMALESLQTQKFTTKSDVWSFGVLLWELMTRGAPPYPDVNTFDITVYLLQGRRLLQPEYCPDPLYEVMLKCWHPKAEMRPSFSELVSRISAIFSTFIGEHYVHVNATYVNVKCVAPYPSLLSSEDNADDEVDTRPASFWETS

| pIC50 (Met kinase [1]) | pIC50 (Met kinase [2]) | SMILES |
| --- | --- | --- |
| 7.00 to 9.00 | 7.00 to 9.00 | Cn1cc(-c2ccc3nnc(Cc4cccc(-c5ncc(Br)cn5)c4)n3n2)cn1 [Compound A1, 3-[3-(5-bromopyrimidin-2-yl)benzyl]-6-(1-methyl-1H-pyrazol-4-yl)-1,2,4-triazolo[4,3-b]pyridazine] |
| 7.00 to 9.00 |  | Cn1cc(-c2ccc3nnc(Cc4cccc(-c5ncc(-c6cnn(CCN7CCCC7)c6)cn5)c4)n3n2)cn1 [Compound A2, 6-(1-methyl-1H-pyrazol-4-yl)-3-(3-{5-[1-(2-pyrrolidin-1-yl-ethyl)-1H-pyrazol-4-yl]pyrimidin-2-yl}benzyl)-1,2,4-triazolo[4,3-b]pyridazine] |
| 7.00 to 9.00 | 7.00 to 9.00 | Cn1cc(-c2ccc3nnc(C(F)(F)c4cccc(-c5ncc(Br)cn5)c4)n3n2)cn1 [Compound A3, 3-{[3-(5-bromopyrimidin-2-yl)phenyl]difluoromethyl}-6-(1-methyl-1H-pyrazol-4-yl)-1,2,4-triazolo[4,3-b]pyridazine] |
| 7.00 to 9.00 | 7.00 to 9.00 | N#Cc1cccc(-c2ccc3nnc(C(F)(F)c4cccc(-c5ncc(Br)cn5)c4)n3n2)c1 [Compound A3a, 3-(3-{[3-(5-bromopyrimidin-2-yl)phenyl]difluoromethyl}-1,2,4-triazolo[4,3-b]-pyridazin-6-yl)benzonitrile] |
| 5.00 to 7.00 | 7.00 to 9.00 | Cn1cc(-c2ccc3nnc(C4(c5cccc(-c6ncc(Br)cn6)c5)CC4)n3n2)cn1 [Compound A4] |
| 7.00 to 9.00 | 7.00 to 9.00 | N#Cc1cccc(-c2ccc3nnc(Cc4cccc(-c5ncc(Br)cn5)c4)n3n2)c1 [Compound A5, 3-{3-[3-(5-bromopyrimidin-2-yl)benzyl]-1,2,4-triazolo[4,3-b]-pyridazin-6-yl}benzonitrile] |
| 5.00 to 7.00 | 7.00 to 9.00 | Cc1ccc2nnc(Cc3cccc(-c4ncc(Br)cn4)c3)n2n1 [Compound A6] |
| 7.00 to 9.00 | 7.00 to 9.00 | Cn1cc(-c2ccc3nnc(C(F)(F)c4cccc(-c5ncc(-c6cnn(CCN7CCCC7)c6)cn5)c4)n3n2)cn1 [Compound A7] |
| 7.00 to 9.00 | 7.00 to 9.00 | Cn1cc(-c2ccc3nnc(C4(c5cccc(-c6ncc(-c7cnn(CCN8CCCC8)c7)cn6)c5)CC4)n3n2)cn1 [Compound A8] |
| 7.00 to 9.00 | 7.00 to 9.00 | Cc1ccc2nnc(Cc3cccc(-c4ncc(-c5cnn(CCN6CCCC6)c5)cn4)c3)n2n1 [Compound A9] |
| 7.00 to 9.00 | 7.00 to 9.00 | CN1CCN(c2cnc(-c3cccc(Cc4nnc5ccc(-c6cnn(C)c6)nn45)c3)nc2)CC1 [Compound A11, 3-{3-[5-(4-methylpiperazin-1-yl)pyrimidin-2-yl]benzyl}-6-(1-methyl-1H-pyrazol-4-yl)-1,2,4-triazolo[4,3-b]pyridazine] |
| 7.00 to 9.00 | 7.00 to 9.00 | Cn1cc(-c2ccc3nnc(C(F)(F)c4cccc(-c5ncc(OCCN6CCOCC6)cn5)c4)n3n2)cn1 [Compound A12, 3-(difluoro-{3-[5-(2-morpholin-4-ylethoxy)pyrimidin-2-yl]-phenyl}methyl)-6-(1-methyl-1H-pyrazol-4-yl)-1,2,4-triazolo[4,3-b]pyridazine] |
| 7.00 to 9.00 | 7.00 to 9.00 | CN1CCN(c2cnc(-c3cccc(C(F)(F)c4nnc5ccc(-c6cnn(C)c6)nn45)c3)nc2)CC1 [Compound A16] |
| 7.00 to 9.00 | 7.00 to 9.00 | Cc1ccc2nnc(Cc3cccc(-c4ncc(N5CCN(C)CC5)cn4)c3)n2n1 [Compound A17] |
| 7.00 to 9.00 | 7.00 to 9.00 | N#Cc1cccc(-c2ccc3nnc(C(F)(F)c4cccc(-c5ncc(-c6cnn(CCN7CCCC7)c6)cn5)c4)n3n2)c1 [Compound A19] |
| 7.00 to 9.00 | 7.00 to 9.00 | N#Cc1cccc(-c2ccc3nnc(Cc4cccc(-c5ncc(-c6cnn(CCN7CCCC7)c6)cn5)c4)n3n2)c1 [Compound A20] |
| 7.00 to 9.00 | 7.00 to 9.00 | Cc1ccc2nnc(C(F)(F)c3cccc(-c4ncc(-c5cnn(CCN6CCCC6)c5)cn4)c3)n2n1 [Compound A21] |

| pIC50 (Met kinase [1]) | pIC50 (Met kinase [2]) | SMILES |
| --- | --- | --- |
| 7.00 to 9.00 | 7.00 to 9.00 | CC(c1cccc(-c2ncc(-c3cnn(CCN4CCCC4)c3)cn2)c1)c1nnc2ccc(-c3cnn(C)c3)nn12 (stereo not drawn) [Compound A22] |
| 7.00 to 9.00 | 7.00 to 9.00 | CN1CCN(c2cnc(-c3cccc(C(F)(F)c4nnc5ccc(-c6cccc(C#N)c6)nn45)c3)nc2)CC1 [Compound A23] |
| 7.00 to 9.00 | 7.00 to 9.00 | N#Cc1cccc(-c2ccc3nnc(C(F)(F)c4cccc(-c5ncc(N6CCNCC6)cn5)c4)n3n2)c1 [Compound A24] |
| 7.00 to 9.00 | 7.00 to 9.00 | Cc1ccc2nnc(C(F)(F)c3cccc(-c4ncc(N5CCN(C)CC5)cn4)c3)n2n1 [Compound A25] |
| 7.00 to 9.00 | 7.00 to 9.00 | Cn1cc(-c2ccc3nnc(C(F)(F)c4cccc(-c5ncccn5)c4)n3n2)cn1 [Compound A26, 3-[difluoro-(3-pyrimidin-2-ylphenyl)methyl]-6-(1-methyl-1H-pyrazol-4-yl)-1,2,4-triazolo[4,3-b]pyridazine] |
| 7.00 to 9.00 |  | Cc1ccc2nnc(C(F)(F)c3cccc(-c4ncc(OCCN5CCOCC5)cn4)c3)n2n1 [Compound A28, 3-(difluoro-{3-[5-(2-morpholin-4-ylethoxy)pyrimidin-2-yl]-phenyl}methyl)-6-methyl-1,2,4-triazolo[4,3-b]pyridazine] |
| 5.00 to 7.00 |  | Cn1cc(-c2ccc3nnc(Cc4cccc(-c5ncc(O)cn5)c4)n3n2)cn1 [Compound A30, 2-{3-[6-(1-methyl-1H-pyrazol-4-yl)-1,2,4-triazolo[4,3-b]pyridazin-3-yl-methyl]phenyl}pyrimidin-5-ol] |
| 7.00 to 9.00 |  | COCCOc1cnc(-c2cccc(C(F)(F)c3nnc4ccc(-c5cnn(C)c5)nn34)c2)nc1 [Compound A31, 3-(difluoro-{3-[5-(2-methoxyethoxy)pyrimidin-2-yl]phenyl}methyl)-6-(1-methyl-1H-pyrazol-4-yl)-1,2,4-triazolo[4,3-b]pyridazine] |
| 7.00 to 9.00 |  | Cn1cc(-c2ccc3nnc(C(F)(F)c4cccc(-c5ncc(OCCO)cn5)c4)n3n2)cn1 [Compound A32, 2-[2-(3-{difluoro-[6-(1-methyl-1H-pyrazol-4-yl)-1,2,4-triazolo[4,3-b]pyridazin-3-yl]methyl}phenyl)pyrimidin-5-yloxy]ethanol] |
| 5.00 to 7.00 |  | COCCOc1cnc(-c2cccc(Cc3nnc4ccc(-c5cnn(C)c5)nn34)c2)nc1 [Compound A33, 3-{3-[5-(2-methoxyethoxy)pyrimidin-2-yl]benzyl}-6-(1-methyl-1H-pyrazol-4-yl)-1,2,4-triazolo[4,3-b]pyridazine] |
| 7.00 to 9.00 |  | Cn1cc(-c2ccc3nnc(Cc4cccc(-c5ncc(OCCO)cn5)c4)n3n2)cn1 [Compound A34, 2-(2-{3-[6-(1-methyl-1H-pyrazol-4-yl)-1,2,4-triazolo[4,3-b]pyridazin-3-ylmethyl]-phenyl}pyrimidin-5-yloxy)ethanol] |
| 7.00 to 9.00 |  | COc1cnc(-c2cccc(Cc3nnc4ccc(-c5cnn(C)c5)nn34)c2)nc1 [Compound A35, 3-[3-(5-methoxypyrimidin-2-yl)benzyl]-6-(1-methyl-1H-pyrazol-4-yl)-1,2,4-triazolo[4,3-b]pyridazine] |
| 7.00 to 9.00 |  | COCCCOc1cnc(-c2cccc(Cc3nnc4ccc(-c5cnn(C)c5)nn34)c2)nc1 [Compound A36, 3-{3-[5-(3-methoxypropoxy)pyrimidin-2-yl]benzyl}-6-(1-methyl-1H-pyrazol-4-yl)-1,2,4-triazolo[4,3-b]pyridazine] |
| 7.00 to 9.00 |  | CN1CCN(CCOc2cnc(-c3cccc(Cc4nnc5ccc(-c6cnn(C)c6)nn45)c3)nc2)CC1 [Compound A37, 3-(3-{5-[2-(4-methylpiperazin-1-yl)ethoxy]pyrimidin-2-yl}benzyl)-6-(1-methyl-1H-pyrazol-4-yl)-1,2,4-triazolo[4,3-b]pyridazine] |
| 7.00 to 9.00 |  | CN1CCC(COc2cnc(-c3cccc(C(F)(F)c4nnc5ccc(-c6cnn(C)c6)nn45)c3)nc2)CC1 [Compound A42, 3-(difluoro-{3-[5-(1-methylpiperidin-4-ylmethoxy)pyrimidin-2-yl]-phenyl}methyl)-6-(1-methyl-1H-pyrazol-4-yl)-1,2,4-triazolo[4,3-b]pyridazine] |
| 7.00 to 9.00 |  | Cc1cnc(-c2cccc(Cc3nnc4ccc(-c5cnn(CCO)c5)nn34)c2)nc1 [Compound A44, 2-(4-{3-[3-(5-methyl-pyrimidin-2-yl)benzyl]-1,2,4-triazolo[4,3-b]pyridazin-6-yl}pyrazol-1-yl)ethanol] |
